Results on 1 compound are retold here after US20170304329A1 (THE UNIVERSITY OF KANSAS, priority 2014, published 2017).

Assay [1] deals with 253JBV bladder cancer cell spheroids. The assay is described as follows: Spheroid (bladdosphere) assay. The format is cell-based, human. The note with it: I generation, 7 days. An excerpt:
(§1) The spheroid assay, which is sometimes also called the 3D assay was developed as a method to propagate epithelial stem cells in vitro, and is now a standard surrogate reporter for stem cell activity. The assay (in this case called bladdosphere assay) is based on the hypothesis that the unique, undifferentiated cells present in bladder cancers will survive in suspension culture, while the other cells will die by anoikis. Therefore, we characterized the effect of ciclopirox (CPX) in bladdosphere assay. Here, cancer cells are plated in ultra-low binding plates and the resulting spheroids are believed to represent growth from stem cells.
(§2) For formation of spheroids, cells were cultured in RPMI 1640 (Mediatech) supplemented with 20 ng/mL bFGF (Invitrogen) 10 mL per 500 mL of 50×B27 supplement (Invitrogen) EGF 20 ng/mL (Invitrogen) and antibiotic and antimycotic solution. Cells were seeded at low densities (5000 cells/mL) in 6-well low adhesion plates. The cells were treated with increasing concentrations of CPX (0.5×, 1×, and 2× of IC50 calculated from cell proliferation assay—2 μM for 253JBV and 4 μM for T24). After 7 days the spheroids were photographed (I generation). Control spheroids and spheroids treated with CPX (1×IC50) were collected, trypsinized and re-plated for the secondary spheroid growth (II generation), followed by tertiary spheroid development (III generation).

The test system of assay [2] is T24 bladder cancer cell spheroids. The assay is described as follows: Spheroid (bladdosphere) assay. The assay is classed as cell-based, human. Particulars: I generation, 7 days.
Excerpt: as §1, §2

The test system of assay [3] is Notch1 signaling and γ-secretase complex proteins in T24 cells. The assay is described as follows: Western blot of Notch signaling pathway proteins. The format is cell-based, human. The note with it: bladder cancer cell lines (T24). The procedure:
Western blot studies were performed to detect the effect of CPX on the expression of proteins involved in Notch signaling pathway. Cell lysates were subjected to polyacrylamide gel electrophoresis and blotted onto Immobilon polyvinylidene difluoride membranes (Millipore, Bedford, Mass., USA). Antibodies were purchased from Cell Signaling Technology (Beverly, Mass., USA), Abcam Inc. (Cambridge, Mass., USA) and Santa Cruz Biotechnology Inc. (Santa Cruz, Calif., USA) and specific proteins were detected by the enhanced chemiluminescence system (GE Healthcare, Piscataway, N.J., USA).
For orientation: Immunoblotting shows a protein as a band on a membrane.

The subject of assay [4] is T24 cells. The assay is described as follows: Flow cytometry-based cell cycle analysis. Details: species or system human. The procedure:
Flow cytometry-based cell cycle analysis studies were conducted to determine the effect of ciclopirox (CPX) on cell cycle progression in T24 cells (data not shown). […] At 1×IC50 and 2×IC50 concentrations, CPX arrest cells at G0/G1 phase. Cells were treated with CPX and a flow cytometer based analysis was performed.

Another assay concerns 253JBV cells. The assay is described as follows: Cell proliferation, hexosaminidase assay. The assay is classed as cell-based, human. Particulars: for IC50: 48 h. Here is the method:
(§3) To determine the effect of CPX on bladder cancer cell proliferation in T24 (MIBC) and 253-JBV (NMIBC) cells, 5,000 cells per well were seeded on to 96-well plates and grown overnight. The cells were then treated with increasing doses of CPX in RPMI media containing 10% FBS. Analysis of cell proliferation after the treatment period was estimated by the hexosaminidase assay. Briefly, the medium was removed and hexosaminidase substrate solution in citrate buffer pH 5 (7.5 mM), p-nitrophenol-N-acetyl-beta-D-glucosaminidase (Sigma Aldrich) was added at 75 μL per well. The plate was incubated at 37° C. in 100% humidity for 30 minutes. The reaction was stopped with 112.5 μL of 50 mM glycine containing 5 mM of EDTA (pH 10.4). The absorbance was measured at 405 nm. Experiments were conducted at n=6, and then repeated at least three times. The data were analyzed as percent of control, where the control wells were treated with equivalent amounts of DMSO alone. For IC50 calculations, a plot between the drug concentration and hexosaminidase activity was generated and the data was fitted either linearly or exponentially. The best fit was used for further processing of data.
(§4) We determined and compared the effect of CPX with CPX-POM and CPX-glucuronide in vitro by performing proliferation assay. To determine the effect of CPX, CPX-POM and CPX-glucuronide on bladder cancer cell proliferation in T24 (MIBC) and 253-JBV (NMIBC) cells, 5,000 cells per well were seeded on to 96-well plates and grown overnight. The cells were then treated with increasing doses of CPX, CPX-POM and CPX-glucuronide in RPMI media containing 10% FBS. Analysis of cell proliferation after the treatment period was estimated by the hexosaminidase assay. Briefly, the medium was removed and hexosaminidase substrate solution in citrate buffer pH 5 (7.5 mM), p-nitrophenol-N-acetyl-beta-D-glucosaminidase (Sigma Aldrich) was added at 75 μL per well. The plate was incubated at 37° C. in 100% humidity for 30 minutes. The reaction was stopped with 112.5 μL of 50 mM glycine containing 5 mM of EDTA (pH 10.4). The absorbance was measured at 405 nm.
(§5) Experiments were conducted at n=6, and then repeated at least three times. The data were analyzed as percent of control, where the control wells were treated with equivalent amounts of DMSO alone. For IC50 so calculations, a plot between the drug concentration and hexosaminidase activity was generated and the data was fitted either linearly or exponentially.

The test system of assay [5] is T24 cells. The assay is described as follows: Cell proliferation, hexosaminidase assay. The format is cell-based, human. Here is the method:
as §3, §4, §5

As a reminder, the IC50 is the point on the concentration scale where inhibition reaches its midpoint. A low value points to higher potency. For `Cc1cc(C2CCCCC2)n(O)c(=O)c1` [CPX, 6-cyclohexyl-1-hydroxy-4-methylpyridin-2(1H)-one], the spheroid formation entry was “significant decrease in size and number of spheroids” in assay [1]; “significant decrease in size and number of spheroids” in assay [2]. In addition, the “expression of Notch pathway proteins” value in assay [3] is “significantly inhibited the expression of the γ-secretase complex proteins”. The cell cycle progression entry in the assay on T24 cells [4] is given as “induces S-phase cell cycle arrest”. Also, the IC50 with 253JBV cells came to 3000 nM; with 253JBV cells (Homo sapiens), 2000 nM; in the assay with T24 cells [5] (Homo sapiens, T-24, 48 h, 48 h), 4000 nM. Also, the “effect on cell proliferation” value in the assay on 253JBV cells (up to 72 h) is “significant dose- and time-dependent decrease in cell proliferation”; in the assay with T24 cells [5] (up to 72 h), “significant dose- and time-dependent decrease in cell proliferation”.
